Patent US8496964B2, “Controlled release micro-capsule for osteogenic action” (Council of Scientific & Industrial Research, priority 2009, dated 2013)

How the values were obtained:
OVx rats = details: cited from earlier work
[1] = In vitro Kaempferol release in SGF and SIF; type: physicochemical; details: SIF compared with SGF
From the text: For in-vitro release study the ultra sink condition was maintained. Briefly, Dried pure Kaempferol dispersed in PBS, the Kaempferol-loaded CaCO3 MP (CaCO3-Kaempferol) and the encapsulated Kaempferol-loaded microcapsules suspension in same concentration were taken in centrifuge tube in one ml phosphate buffer saline (PBS). Two different pH solutions were used as the release medium [a simulated gastric fluid (SGF) (pH 1.2), prepared by diluting a concentrated HCl solution] and [a simulated intestinal fluid (SIF) (pH 7.4), prepared with 0.02M phosphate buffer saline]. The sample was maintained under horizontal agitation at 37° C. in vortex. At different time intervals the dispersion was centrifuged at 10,000 rpm for 5 min. and the supernatant was assayed for Kaempferol using RP-HPLC method at 370 nm against reagent blank. After each sampling the medium was replaced with fresh buffer. It was also ensured that no extra tiny particles are left in the supernatant.

[2] = test system: ovariectomized (OVx) rats; experiment: Bone mineral density (BMD) by DEXA after one month of oral administration; type: in vivo, female Sprague Dawley rats
Procedure: (§1) The study was conducted in accordance with current legislation on animal experiments [Institutional Animal Ethical Committee (IAEC)] at C.D.R.I. Forty female Sprague Dawley rats weighing 200 g were taken for the study (n=10/group). Thirty rats were bilaterally ovariectomized (OVx). The other 10 rats were exposed to a sham surgical procedure. All rats were individually housed at 21° C., in 12-h/12-h light-dark cycles. Normal chow diet and water was provided ad libitum. The rats were left for 4 weeks to develop osteopenia. The animals were divided into 4 groups Sham, Ovaticetomized group (Ovx), Ovx+Kaempferol (Ovaticetomized group treated with Kaempferol) and Ovx+F (Ovaticetomized group treated with formulation of Kaempferol). Animals were treated for one month then sacrificed and BMD was determined.
BMD was determined by DEXA (Dual Energy X-ray Absorptiometry) using a Hologic QDR 4500A x-ray densitometer with high-resolution small animal software. BMD of the excised bones (left femurs, tibia, and lumbar vertebrae) were studied at the end of experiment. Left femurs were placed on their posterior surfaces, and BMD of the sub-regions was assessed. Distal and proximal regions corresponded to the cancellous bone and central to the cortical bone. Results are given in g/cm^2 as represented in FIG. 5.

in vivo = details: rat, po, 1 mg/kg
Procedure: Kaempferol (free; 1 mg/kg) in 20% ethanol was orally administered by gavage. Following administration, the rats were sacrificed at 0.25, 0.5, 1.0, 1.5, 2.0, 2.5, 3.0, 4.0, 6.0, and 24 h to obtain serum and bone marrow. After protein precipitation, concentration of Kaempferol in serum and bone marrow was determined by HPLC. […] Similarly formulated (LbL based assembly) Kaempferol (equivalent to 1 mg/kg of free Kaempferol) was administered orally using gavage. Following administration, the rats were sacrificed at 0.25, 0.5, 1.0, 1.5, 2.0, 2.5, 3.0, 4.0, 6.0, and 24 h to obtain serum and bone marrow. After protein precipitation concentration of Kaempferol in serum and bone marrow was determined by HPLC. The mean serum pharmacokinetics profile (for the three rats at each time point) of kaempferol on administration of formulation was calculated over 24 h. Rapid absorption of Kaempferol is evident, which appeared to peak after 1 h and can be detected for as long as 24 h post administration.

[3] = test system: ovariectomized (OVx) rats; experiment: Trabecular bone strength, Bone Strength Tester TK-252C; type: in vivo, female Sprague Dawley rats; details: one month treatment
Procedure: as §1
This test predominantly measured trabecular bone strength using a Bone Strength Tester TK-252C (Muromachi Kikai Co. Ltd., Tokyo, Japan). The bone strength for all the groups was measured as reported in this invention.

[4] = compared with OVx group treated with vehicle
[5] = one month oral treatment, excised bone

- Kaempferol saturation solubility [1]: much higher
- AUC(0-t) (in vivo): 1420 ng·h/mL
- Tmax (in vivo): 30 min
- time after which bone marrow level went below the detection limit (in vivo): 2.5 h
- time after which serum level went below the detection limit (in vivo): 6 h
- time of Cmax in bone marrow (in vivo): 90 min
- Cmax (in vivo; Cmax of Kaempferol in bone marrow): 194 ng/mL
- Cmax (in vivo; Cmax of Kaempferol in serum): 583 ± 229 ng/mL
SMILES: O=c1c(O)c(-c2ccc(O)cc2)oc2cc(O)cc(O)c12 [Kaempferol]
- bone sparing action (OVx rats): exerts bone sparing action
- estrogen agonistic effect at the uterine level (OVx rats): no estrogen agonistic effect
- adipocyte differentiation from bone marrow cells (OVx rats; [4]): inhibition
- osteoprogenitor cells (OVx rats; [4]): increase
- Bone Mineral Density, Femur diaphysis [2, 5]: 0.2658 ± 0.01 g/cm^2
- Bone Mineral Density, Femur global [2, 5]: 0.262 ± 0.01 g/cm^2
- Bone Mineral Density, Tibia Head [2, 5]: 0.2835 ± 0.015 g/cm^2
- Bone Mineral Density, Vertebrae global [2, 5]: 0.1847 ± 0.013 g/cm^2
- trabecular BMD over OVx+vehicle group ([2]; one month treatment): significantly higher
- bone biomechanical strength over OVx+vehicle group [3]: significantly higher
- Bone strength ([3]; trabecular bone): 209.4 ± 21.52 N/mm
